Source: patent US11707065B2, “Method for biofilm dispersal” (MC (US) 3 LLC, priority 2017, dated 2023)

What was measured:
[1] = system: Desulfovibrio desulfuricans (DSM 12129) biofilm; assay: Biofilm dispersal assay, crystal violet staining of remaining biofilm in 96-well plates; type: cell-based; settings: D. desulfuricans, 2 h treatment, 24 h biofilm, negative control 0.88
Procedure: (§1) Cultures of Desulfovibrio vulgaris (ATCC 29579) and Desulfovibrio desulfuricans (DSM 12129) were prepared in Modified Baar's medium at 30 C under anaerobic conditions. The bacterial cultures were then used to prepare bacterial suspensions in fresh Modified Baar's medium to a cell density of 0.1 (Table 2 to 6) or 0.05 (Table 1) at 600 nm. The appropriate bacterial suspension was used to fill 96-well plates and the plates were incubated in an anaerobic glove box for 24 h (Table 2 to 6) or 48 h (Table 1) at 30° C. to develop biofilms. Stocks of D-mannose (2.85 M, Alfa Aesar, Cat #A10842), 2DG (1.22 M, Alfa Aesar, Cat #AAAL07338-06), αMM (1.22 M, Acros Organics, Cat #AC229251000), and αMG (1.22 M, Alfa Aesar, Cat #AAA12484-22) were prepared in sterile distilled water and filtered through a 0.22 μm filter. For biofilm dispersal assay, the planktonic cells were removed, and the plates were washed with 150 μL of 1× of phosphate buffered saline (pH 7.4); D-mannose, 2DG, αMM, and αMG were added, the volume was adjusted with 1×PBS, pH 7.4 to 150 μL, and the plates were incubated in the anaerobic glove box for 2 h (Table 1, 2, 4, 5, 6) or 14 h (Table 3) for biofilm dispersal studies. After the treatment, supernatants were discarded; the wells were washed three times with deionized water (DW) by dipping the plates into a 1 L solution of DW, and the plates were dried via a piece of paper towel by patting. 300 μL of 0.1% crystal violet was added to each well, the plates were incubated for 20 minutes at room temperature (25° C.), and the staining solution was discarded. The plates were washed three times with DW by dipping the plates into a 1 L solution of DW, then 300 μL of 95% ethanol was added to each well, and the plates were soaked for 5 min to dissolve the crystal violet. Total biofilm was measured spectrophotometrically at 540 nm using a Sunrise microplate reader (Tecan, Austria Gesellschaft, Salzburg, Austria).

[2] = system: Desulfovibrio vulgaris (ATCC 29579) biofilm; assay: as above; type: cell-based; settings: D. vulgaris
Procedure: as §1

[3] = 30 mM, 2 h treatment, 24 h biofilm (cell density 0.1), negative control per table
[4] = 100 mM, 2 h treatment, 24 h biofilm (cell density 0.1), negative control per table
[5] = 500 mM, 2 h treatment, 24 h biofilm (cell density 0.1), negative control per table

O=CC[C@@H](O)[C@H](O)[C@H](O)CO [2DG, 2-deoxy-D-glucose]
Remaining biofilm OD540 (average) ([1]; 30 mM): 0.59
Remaining biofilm OD540 (average) ([1]; 100 mM): 0.49
Remaining biofilm OD540 (average) ([1]; 500 mM): 0.41
Remaining biofilm OD540 ([2]; 1 mM, 14 h treatment, 24 h biofilm, negative control 0.26): 0.24
Remaining biofilm OD540 ([2]; 5 mM, 14 h treatment, 24 h biofilm, negative control 0.26): 0.21
Remaining biofilm OD540 ([2]; 10 mM, 14 h treatment, 24 h biofilm, negative control 0.26): 0.16
Remaining biofilm OD540 [2, 3]: 0.24
Remaining biofilm OD540 [2, 4]: 0.17
Remaining biofilm OD540 [2, 5]: 0.18

CO[C@H]1O[C@H](CO)[C@@H](O)[C@H](O)[C@H]1O [αMG, methyl α-D-glucopyranoside]
Remaining biofilm OD540 (average) ([1]; 30 mM): 0.75
Remaining biofilm OD540 (average) ([1]; 100 mM): 0.62
Remaining biofilm OD540 (average) ([1]; 500 mM): 0.55
Remaining biofilm OD540 [2, 3]: 0.39
Remaining biofilm OD540 [2, 4]: 0.33
Remaining biofilm OD540 [2, 5]: 0.45

CO[C@H]1O[C@H](CO)[C@@H](O)[C@H](O)[C@@H]1O [αMM, methyl α-D-mannopyranoside]
Remaining biofilm OD540 (average) ([1]; 30 mM): 0.60
Remaining biofilm OD540 (average) ([1]; 100 mM): 0.53
Remaining biofilm OD540 (average) ([1]; 500 mM): 0.50
Remaining biofilm OD540 [2, 3]: 0.42
Remaining biofilm OD540 [2, 4]: 0.40
Remaining biofilm OD540 [2, 5]: 0.23
